Assay results reported in ChEMBL document CHEMBL5653615 (J Biol Chem, 2013).

Tests used:
[1] = molecular target: Tyrosine-protein kinase Lck (Homo sapiens) (UniProt P06239); assay: Inhibition of human LCK at 18.6 nM by HotSpot assay relative to control
[2] = molecular target: Serine/threonine-protein kinase Chk2 (Homo sapiens) (UniProt O96017); assay: Inhibition of human CHK2 at 18.6 nM by HotSpot assay relative to control
[3] = molecular target: T1, Serine/threonine-protein kinase A-Raf (Homo sapiens) (UniProt P10398); assay: Inhibition of human ARAF at 18.6 nM by HotSpot assay relative to control
T1 sequence (whole entry): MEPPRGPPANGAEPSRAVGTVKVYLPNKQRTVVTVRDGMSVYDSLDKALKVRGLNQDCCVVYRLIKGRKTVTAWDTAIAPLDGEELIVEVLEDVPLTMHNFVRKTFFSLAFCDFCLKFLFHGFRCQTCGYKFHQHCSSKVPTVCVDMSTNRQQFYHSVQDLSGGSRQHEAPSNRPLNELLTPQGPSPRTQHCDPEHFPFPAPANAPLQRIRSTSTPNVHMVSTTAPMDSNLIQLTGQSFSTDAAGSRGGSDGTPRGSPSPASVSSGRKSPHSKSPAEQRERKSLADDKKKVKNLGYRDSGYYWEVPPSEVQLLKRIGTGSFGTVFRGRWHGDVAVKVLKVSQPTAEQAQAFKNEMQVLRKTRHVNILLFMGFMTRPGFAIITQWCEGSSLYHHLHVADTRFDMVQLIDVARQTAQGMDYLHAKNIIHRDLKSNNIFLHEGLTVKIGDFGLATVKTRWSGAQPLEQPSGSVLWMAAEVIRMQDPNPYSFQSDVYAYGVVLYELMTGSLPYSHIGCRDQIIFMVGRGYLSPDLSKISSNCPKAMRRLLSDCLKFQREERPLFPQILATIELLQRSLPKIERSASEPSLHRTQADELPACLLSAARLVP

[4] = molecular target: Dual specificity tyrosine-phosphorylation-regulated kinase 1A (Homo sapiens) (UniProt Q13627); assay: Inhibition of human DYRK1 at 18.6 nM by HotSpot assay relative to control
[5] = molecular target: Dual specificity tyrosine-phosphorylation-regulated kinase 1B (Homo sapiens) (UniProt Q9Y463); assay: Inhibition of human DYRK1B at 18.6 nM by HotSpot assay relative to control
[6] = molecular target: Proto-oncogene tyrosine-protein kinase receptor Ret (Homo sapiens) (UniProt P07949); assay: Inhibition of human RET at 18.6 nM by HotSpot assay relative to control
[7] = molecular target: Serine/threonine-protein kinase pim-2 (Homo sapiens) (UniProt Q9P1W9); assay: Inhibition of human PIM2 at 18.6 nM by HotSpot assay relative to control
[8] = molecular target: T2, Serine/threonine-protein kinase DCLK2 (Homo sapiens) (UniProt Q8N568); assay: Inhibition of human DCAMKL2 at 18.6 nM by HotSpot assay relative to control
T2 sequence (whole entry): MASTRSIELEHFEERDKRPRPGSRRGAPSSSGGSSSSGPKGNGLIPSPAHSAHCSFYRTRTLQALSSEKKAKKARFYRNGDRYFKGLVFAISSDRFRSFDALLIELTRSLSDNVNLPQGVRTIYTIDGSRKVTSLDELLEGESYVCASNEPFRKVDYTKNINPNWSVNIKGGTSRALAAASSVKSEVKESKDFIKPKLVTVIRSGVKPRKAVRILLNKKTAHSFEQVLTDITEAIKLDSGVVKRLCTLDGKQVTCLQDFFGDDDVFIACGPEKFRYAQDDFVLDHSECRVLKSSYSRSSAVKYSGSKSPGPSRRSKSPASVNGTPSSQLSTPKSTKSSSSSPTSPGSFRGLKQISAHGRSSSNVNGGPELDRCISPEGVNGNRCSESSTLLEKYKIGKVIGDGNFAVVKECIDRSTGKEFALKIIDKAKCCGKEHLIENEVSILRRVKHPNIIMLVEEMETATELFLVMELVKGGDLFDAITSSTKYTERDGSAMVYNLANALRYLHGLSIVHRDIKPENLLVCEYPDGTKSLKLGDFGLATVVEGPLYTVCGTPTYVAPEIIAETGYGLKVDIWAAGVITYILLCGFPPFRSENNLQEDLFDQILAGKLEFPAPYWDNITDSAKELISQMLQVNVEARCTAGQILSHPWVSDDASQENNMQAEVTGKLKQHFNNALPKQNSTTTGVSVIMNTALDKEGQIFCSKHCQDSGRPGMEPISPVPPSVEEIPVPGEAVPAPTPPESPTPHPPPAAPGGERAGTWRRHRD

[9] = molecular target: Mitogen-activated protein kinase 11 (Homo sapiens) (UniProt Q15759); assay: Inhibition of human MAPK11 at 18.6 nM by HotSpot assay relative to control
Homo sapiens = species: Homo sapiens; assay: Inhibition of human CDK2/cyclin A at 1.82 nM by HotSpot assay relative to control
[10] = molecular target: Tyrosine-protein kinase ABL1 (Homo sapiens) (UniProt P00519); assay: Inhibition of human ABL1 at 1.82 nM by HotSpot assay relative to control
[11] = molecular target: Myosin light chain kinase 2, skeletal/cardiac muscle (Homo sapiens) (UniProt Q9H1R3); assay: Inhibition of human MYLK2 at 1.82 nM by HotSpot assay relative to control
[12] = molecular target: T3, Cytoplasmic tyrosine-protein kinase BMX (Homo sapiens) (UniProt P51813); assay: Inhibition of human BMX at 1.82 nM by HotSpot assay relative to control
T3 sequence (whole entry): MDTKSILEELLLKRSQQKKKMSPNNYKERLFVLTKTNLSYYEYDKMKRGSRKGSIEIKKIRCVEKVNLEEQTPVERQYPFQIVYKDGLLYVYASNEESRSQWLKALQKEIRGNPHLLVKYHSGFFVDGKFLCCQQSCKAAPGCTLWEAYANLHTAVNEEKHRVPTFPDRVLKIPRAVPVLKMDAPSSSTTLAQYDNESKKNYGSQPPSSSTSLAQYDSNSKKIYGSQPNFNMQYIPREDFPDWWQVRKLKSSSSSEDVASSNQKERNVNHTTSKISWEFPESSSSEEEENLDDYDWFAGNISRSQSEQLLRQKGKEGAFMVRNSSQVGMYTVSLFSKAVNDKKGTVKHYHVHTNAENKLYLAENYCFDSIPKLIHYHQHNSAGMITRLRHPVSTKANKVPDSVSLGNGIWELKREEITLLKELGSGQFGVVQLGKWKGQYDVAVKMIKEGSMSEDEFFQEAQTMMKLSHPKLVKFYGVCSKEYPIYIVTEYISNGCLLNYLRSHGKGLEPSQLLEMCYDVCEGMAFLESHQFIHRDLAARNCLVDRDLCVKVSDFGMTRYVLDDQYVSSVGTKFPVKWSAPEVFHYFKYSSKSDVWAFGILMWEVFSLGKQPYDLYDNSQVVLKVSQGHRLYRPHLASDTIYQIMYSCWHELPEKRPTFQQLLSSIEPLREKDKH

Serine/threonine-protein kinase Chk2 (Homo sapiens), sequence (O96017 whole entry): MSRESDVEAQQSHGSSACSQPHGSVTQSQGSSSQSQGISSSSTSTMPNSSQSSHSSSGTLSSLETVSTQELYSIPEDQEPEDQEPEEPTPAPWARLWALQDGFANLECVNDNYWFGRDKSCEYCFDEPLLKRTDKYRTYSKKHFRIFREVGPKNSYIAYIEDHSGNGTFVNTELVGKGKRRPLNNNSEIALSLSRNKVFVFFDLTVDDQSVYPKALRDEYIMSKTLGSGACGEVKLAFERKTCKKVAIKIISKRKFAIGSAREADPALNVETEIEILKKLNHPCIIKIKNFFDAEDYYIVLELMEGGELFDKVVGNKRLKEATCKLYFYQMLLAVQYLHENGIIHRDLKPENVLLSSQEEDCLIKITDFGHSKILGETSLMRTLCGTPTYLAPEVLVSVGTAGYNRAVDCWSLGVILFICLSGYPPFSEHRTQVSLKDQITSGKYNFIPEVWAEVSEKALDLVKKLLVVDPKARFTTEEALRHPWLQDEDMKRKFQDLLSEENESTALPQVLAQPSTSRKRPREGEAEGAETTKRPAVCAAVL
Proto-oncogene tyrosine-protein kinase receptor Ret (Homo sapiens), sequence (P07949 whole entry): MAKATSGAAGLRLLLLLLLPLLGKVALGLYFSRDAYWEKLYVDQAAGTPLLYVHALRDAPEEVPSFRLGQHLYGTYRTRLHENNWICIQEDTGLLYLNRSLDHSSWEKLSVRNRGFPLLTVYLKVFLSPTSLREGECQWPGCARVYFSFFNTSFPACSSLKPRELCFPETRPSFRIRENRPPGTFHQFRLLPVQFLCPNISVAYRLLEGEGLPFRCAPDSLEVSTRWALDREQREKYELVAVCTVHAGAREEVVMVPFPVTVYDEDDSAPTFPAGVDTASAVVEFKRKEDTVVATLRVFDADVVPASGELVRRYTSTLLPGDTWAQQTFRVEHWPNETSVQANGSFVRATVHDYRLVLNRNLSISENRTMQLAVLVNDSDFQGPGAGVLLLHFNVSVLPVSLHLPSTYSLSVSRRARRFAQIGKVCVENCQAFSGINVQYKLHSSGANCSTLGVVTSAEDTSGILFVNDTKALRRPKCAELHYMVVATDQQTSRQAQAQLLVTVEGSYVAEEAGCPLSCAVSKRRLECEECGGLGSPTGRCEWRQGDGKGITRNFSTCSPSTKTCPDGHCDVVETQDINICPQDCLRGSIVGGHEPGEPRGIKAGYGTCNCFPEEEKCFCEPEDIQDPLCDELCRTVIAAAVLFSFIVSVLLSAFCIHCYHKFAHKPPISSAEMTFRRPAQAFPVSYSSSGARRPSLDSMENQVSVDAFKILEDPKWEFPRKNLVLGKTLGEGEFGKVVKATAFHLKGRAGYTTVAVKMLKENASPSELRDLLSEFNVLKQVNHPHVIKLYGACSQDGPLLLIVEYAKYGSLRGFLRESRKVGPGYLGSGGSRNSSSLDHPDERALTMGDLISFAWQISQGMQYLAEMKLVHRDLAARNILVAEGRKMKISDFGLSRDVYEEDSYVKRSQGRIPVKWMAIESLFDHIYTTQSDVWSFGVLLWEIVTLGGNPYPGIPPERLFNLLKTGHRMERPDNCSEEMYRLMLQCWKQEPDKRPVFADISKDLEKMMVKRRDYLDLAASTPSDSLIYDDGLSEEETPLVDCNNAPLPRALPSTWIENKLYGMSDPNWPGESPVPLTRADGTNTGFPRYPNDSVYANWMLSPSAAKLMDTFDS
Myosin light chain kinase 2, skeletal/cardiac muscle (Homo sapiens), sequence (Q9H1R3 whole entry): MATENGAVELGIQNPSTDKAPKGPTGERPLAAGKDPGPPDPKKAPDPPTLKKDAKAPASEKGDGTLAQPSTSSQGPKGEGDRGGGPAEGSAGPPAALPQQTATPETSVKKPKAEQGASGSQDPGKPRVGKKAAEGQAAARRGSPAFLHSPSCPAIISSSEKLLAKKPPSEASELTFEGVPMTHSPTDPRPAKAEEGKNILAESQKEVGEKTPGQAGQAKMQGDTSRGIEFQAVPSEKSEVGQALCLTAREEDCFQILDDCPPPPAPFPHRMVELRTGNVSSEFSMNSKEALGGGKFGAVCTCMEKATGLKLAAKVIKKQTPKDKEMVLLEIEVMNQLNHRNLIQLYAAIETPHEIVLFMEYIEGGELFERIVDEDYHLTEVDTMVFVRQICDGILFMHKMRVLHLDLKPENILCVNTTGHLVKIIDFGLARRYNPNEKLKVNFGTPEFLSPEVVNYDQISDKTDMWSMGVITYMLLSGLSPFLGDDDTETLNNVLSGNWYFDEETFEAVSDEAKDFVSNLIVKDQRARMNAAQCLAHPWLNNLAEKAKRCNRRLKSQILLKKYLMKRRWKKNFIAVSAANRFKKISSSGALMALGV
Tyrosine-protein kinase ABL1 (Homo sapiens), sequence (P00519 whole entry): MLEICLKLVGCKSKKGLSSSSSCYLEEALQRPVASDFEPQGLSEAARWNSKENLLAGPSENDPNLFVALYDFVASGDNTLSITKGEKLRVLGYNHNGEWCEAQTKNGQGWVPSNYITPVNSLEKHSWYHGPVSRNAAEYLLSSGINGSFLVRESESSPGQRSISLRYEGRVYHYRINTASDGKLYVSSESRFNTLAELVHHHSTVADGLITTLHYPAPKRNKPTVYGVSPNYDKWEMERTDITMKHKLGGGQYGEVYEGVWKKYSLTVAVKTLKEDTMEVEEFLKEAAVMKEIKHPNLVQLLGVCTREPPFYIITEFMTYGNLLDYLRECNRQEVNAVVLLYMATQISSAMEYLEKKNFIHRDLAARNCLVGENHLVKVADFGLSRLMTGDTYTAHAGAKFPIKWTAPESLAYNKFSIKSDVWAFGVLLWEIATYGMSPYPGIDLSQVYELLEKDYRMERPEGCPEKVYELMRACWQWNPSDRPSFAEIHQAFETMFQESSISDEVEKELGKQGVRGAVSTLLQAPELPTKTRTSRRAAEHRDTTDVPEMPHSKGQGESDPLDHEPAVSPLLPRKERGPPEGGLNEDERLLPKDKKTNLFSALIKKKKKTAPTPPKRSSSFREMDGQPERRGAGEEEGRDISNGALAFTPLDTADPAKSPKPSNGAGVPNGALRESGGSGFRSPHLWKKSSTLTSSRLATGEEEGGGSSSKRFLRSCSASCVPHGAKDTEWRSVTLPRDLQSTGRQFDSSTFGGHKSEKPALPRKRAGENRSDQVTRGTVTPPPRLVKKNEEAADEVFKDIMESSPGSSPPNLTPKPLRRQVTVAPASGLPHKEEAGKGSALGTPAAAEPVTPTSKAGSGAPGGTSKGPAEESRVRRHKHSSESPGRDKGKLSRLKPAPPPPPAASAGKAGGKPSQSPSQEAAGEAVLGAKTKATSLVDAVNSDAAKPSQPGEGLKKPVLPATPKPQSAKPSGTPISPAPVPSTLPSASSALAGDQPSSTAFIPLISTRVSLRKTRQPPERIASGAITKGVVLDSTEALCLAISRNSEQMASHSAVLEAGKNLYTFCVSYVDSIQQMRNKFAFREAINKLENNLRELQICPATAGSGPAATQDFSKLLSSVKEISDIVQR
Tyrosine-protein kinase Lck (Homo sapiens), sequence (P06239 2-509 limits assumed): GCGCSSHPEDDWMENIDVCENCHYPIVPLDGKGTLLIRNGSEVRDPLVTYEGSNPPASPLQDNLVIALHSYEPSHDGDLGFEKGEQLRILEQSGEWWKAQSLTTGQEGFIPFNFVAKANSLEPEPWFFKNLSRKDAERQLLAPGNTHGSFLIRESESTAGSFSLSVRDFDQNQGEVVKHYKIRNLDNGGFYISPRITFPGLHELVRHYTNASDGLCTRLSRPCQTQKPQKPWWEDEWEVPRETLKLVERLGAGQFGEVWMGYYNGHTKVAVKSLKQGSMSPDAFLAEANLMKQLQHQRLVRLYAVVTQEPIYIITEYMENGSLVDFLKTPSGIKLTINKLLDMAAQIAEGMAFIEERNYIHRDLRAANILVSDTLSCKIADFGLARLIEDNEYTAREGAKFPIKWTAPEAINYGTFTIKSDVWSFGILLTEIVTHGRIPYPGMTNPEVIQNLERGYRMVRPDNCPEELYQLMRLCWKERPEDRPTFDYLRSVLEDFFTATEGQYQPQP
Serine/threonine-protein kinase pim-2 (Homo sapiens), sequence (Q9P1W9 whole entry, looked up): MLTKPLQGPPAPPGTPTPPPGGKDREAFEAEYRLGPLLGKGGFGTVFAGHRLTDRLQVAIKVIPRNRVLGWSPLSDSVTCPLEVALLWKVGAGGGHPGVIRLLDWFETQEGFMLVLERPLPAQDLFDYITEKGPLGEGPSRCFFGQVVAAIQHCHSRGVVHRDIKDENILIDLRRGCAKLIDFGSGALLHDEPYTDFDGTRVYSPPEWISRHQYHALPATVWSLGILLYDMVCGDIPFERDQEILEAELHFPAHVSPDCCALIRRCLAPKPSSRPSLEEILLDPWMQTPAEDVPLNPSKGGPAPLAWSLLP
Mitogen-activated protein kinase 11 (Homo sapiens), sequence (Q15759 whole entry): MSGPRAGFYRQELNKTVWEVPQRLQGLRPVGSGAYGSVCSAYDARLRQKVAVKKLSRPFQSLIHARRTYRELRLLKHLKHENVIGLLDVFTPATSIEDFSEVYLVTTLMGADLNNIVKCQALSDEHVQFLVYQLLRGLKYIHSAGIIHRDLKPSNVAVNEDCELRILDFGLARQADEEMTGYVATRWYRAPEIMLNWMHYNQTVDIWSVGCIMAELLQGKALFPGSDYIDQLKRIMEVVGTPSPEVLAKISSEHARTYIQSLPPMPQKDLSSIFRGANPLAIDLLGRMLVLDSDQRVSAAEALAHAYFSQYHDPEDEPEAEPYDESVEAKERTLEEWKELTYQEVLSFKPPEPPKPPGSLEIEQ

inhibition [1]	inhibition [2]	inhibition [3]	inhibition [4]	inhibition [5]	inhibition [6]	inhibition [7]	inhibition [8]	inhibition [9]	inhibition (Homo sapiens)	inhibition [10]	inhibition [11]	inhibition [12]	SMILES
6.33%	0.83%	5.16%	-1.6%	1.39%	15.8%	-9.03%	10.8%	-4.21%					C[C@]1(O)C[C@@H](c2nc(-c3ccc4ccc(-c5ccccc5)nc4c3)c3c(N)nccn32)C1
									0.69%	3.21%	-4.22%	-1.37%	C[C@@]1(C(=O)Nc2ccc(F)nc2)CCCN1c1nc(Nc2cc(C3CC3)n[nH]2)c2cccn2n1
